We go through 3 compounds from patent US6329523A, “Compounds having a plurality of nitrogenous substitutents” (ISIS Pharmaceuticals, Inc., priority 1999, dated 2001).

Common to all, as to assay type: cell-based
One test has as its system Streptococcus pyogenes. The test is described as follows: MIC / bacterial growth assay, Streptococcus pyogenes. The following applies: for inhibition at 100 µM: read-out: inhibition in the S. pyogenes procedure. The procedure: S. pyogenes [American Type Culture Collection (ATCC) #14289] is used in this bacterial growth assay. To initiate the exponential phase of bacterial growth prior to the assay, a sample of bacteria is grown for 6 hours in Todd Hewitt Broth (Difco 0492-17-6) at 37° C. then re-inoculated into fresh media and grown overnight at 37° C. The bacterial cells are collected by centrifugation for 10 minutes at 3200 rpm, diluted and absorbance read at 595 nm. Bacteria diluted in 233 Todd-Hewitt Broth ([…]) are added to the compound mixtures (75 μL) for a total volume of 150 μL. The assays are performed in 96-well microplates with approximately 1×10^4 colony forming units (CFU) per well. The plates are incubated at 37° C. and growth monitored over a 24 hour period by measuring the optical density at 595 nm using a BioRad model 3550 UV microplate reader. The percentage of growth relative to a well containing no compound is determined. Ampicillin and tetracycline antibiotic controls are concurrently tested in each screening assay.
(§1) Compounds are assayed in duplicate at a single dose. Compounds which show inhibitory activity are re-tested in duplicate at multiple doses to determine minimum inhibitory concentration (MIC).

Another test relates to E. coli imp-. The test is described as follows: MIC / bacterial growth assay, E. coli imp-. The following applies: Escherichia coli. The procedure: The strain E. coli imp- obtained from Spencer Benson (Sampson, B. A., Misra, R. & Benson, S. A., Genetics, 1989, 122, 491-501, Identification and characterization of a new gene of Escherichia coli K-12 involved in outer membrane permeability) is used in this bacterial growth assay. To initiate the exponential phase of bacterial growth prior to the assay, a sample of bacteria is grown for 6 hours in Mueller Hinton II Broth (BBL 12322) at 37° C. then re-inoculated into fresh media and grown overnight at 37° C. The bacterial cells are collected by centrifugation for 10 minutes at 3200 rpm, diluted and absorbance read at 595 nm. Bacteria diluted in 2×Mueller Hinton II Broth (75 μL) are added to the compound mixtures (75μL) for a total volume of 150 μL. The assays are performed in 96-well microplates with approximately 1×10^4 colony forming units (CFU) per well. The plates are incubated at 37° C. and growth monitored over a 24 hour period by measuring the optical density at 595 nm using a BioRad model 3550 UV microplate reader. The percentage of growth relative to a well containing no compound is determined. Ampicillin and tetracycline antibiotic controls are concurrently tested in each screening assay.
as §1

The next test concerns C. albicans. The test is described as follows: antifungal MIC assay, C. albicans. The following applies: Candida albicans, 24 h; MIC ASSAYS table; unit inferred.

The structures appear in SMILES notation. ≈ marks a conversion by molar mass, not a printed value.

Description for C. albicans: Yeast diluted in 2×YM Broth (75 μL) are added to the compound mixtures (75 μL) for a total volume of 150 μL. The assays are performed in 96-well microplates with approximately 1×10^4 cells per well. The plates are incubated at 25° C. and growth monitored at 48 hours by visual inspection of yeast growth. Amphotericin B anti-fungal control is concurrently tested in each screening assay.
Compounds are assayed in duplicate at multiple doses to determine minimum inhibitory concentration (MIC).

The MIC is the lowest concentration found to suppress growth. On to `OCCCN(CCN(Cc1ccccc1)Cc1cccc(CN(Cc2ccccc2)Cc2ccccc2)n1)Cc1ccccc1` [Compound 9, 2-(N,N-dibenzylaminomethylene)-6-{[N1-[benzyl(methyl-1-yl)]-N2-(benzyl)-1-propanol-3-yl]-1,2-diaminoethane}pyridine], for which the minimal inhibitory concentration (MIC) in the test with Streptococcus pyogenes (24 h, MIC ASSAYS table, first round or parent libraries, unit inferred, read-out: MIC S. pyrogenes) was 5 to 25 µM (≈ 2.99 to 15 µg/mL); in the test with E. coli imp- (24 h, read-out: MIC E. coli), 5 to 25 µM (≈ 2.99 to 15 µg/mL); in the test on C. albicans it was 1 to 5 µM (≈ 0.599 to 2.99 µg/mL).
A word on the inhibition: it is the change of the read-out against control, counted positive when it falls. Turning to `NC(=O)CN(Cc1cccc(C(F)(F)F)c1)Cc1cccc(CN(CCNCCCO)Cc2cccc(C(F)(F)F)c2)n1` [Example 137], the inhibition at 100 µM in the test on Streptococcus pyogenes worked out at 95%; in the test with E. coli imp- (read-out: inhibition in the E. coli procedure) it was 87%.
Take `N=C(N)NCc1cccc(CN(CCNCCCO)Cc2cccc(C(F)(F)F)c2)n1` [Example 142]: in the test with Streptococcus pyogenes, the inhibition at 100 µM came to 95%.
